For one experiment, the system named is TERT expression. Kind of experiment: TERT expression by qRT-PCR in human cancer cell lines treated with inhibitors. The format is cell-based. To be noted: 0.2 uM AZD6244, 24 hours. Here is the method: (§1) FIG. 2A-2G. BRAF V600E/MAPK pathway regulated TERT expression. (FIG. 2A) TERT expression was analyzed by qRT-PCR in cells treated with 0.5 uM PLX4032 or 0.2 uM AZD6244 for 24 hours (upper panel). The corresponding levels of phosphorylated ERK (p-ERK), total ERK (t-ERK), and beta-actin were detected by Western blotting (lower panel). The relative TERT mRNA expression levels were normalized to the DMSO control group. (FIG. 2B) Luciferase reporting assay of TERT promoter activities in K1 cells treated with DMSO or PLX4032 (0.5 uM). (FIG. 2C, 2D) Specific shRNA against BRAF were used to knock down BRAF in thyroid cancer cell lines BCPAP and K1 and melanoma cell line A375. Scramble shRNA was used as control. Cells were then subjected to Western blotting (FIG. 2C) and qRT-PCR (FIG. 2D). (FIG. 2E) Sequencing of the BRAF exon-15 in the parental and heterozygous BRAF-V600E knock-in SW48 cells. BRAF V600E was knocked in on one allele of BRAF by rAAV technology through homologous recombination and Cre recombinase of the Neo cassette. (FIG. 2F) Western blotting analyses of phosphorylation of ERK (p-ERK), total ERK (t-ERK), BRAF, and beta-actin in the parental and BRAF-V600E knock-in SW48 cells. (FIG. 2G) TERT promoter luciferase reporter assay in SW48 cells with/without BRAF V600E knock-in. **P<0.01, ***P<0.001, by 2-tailed Student's t test. P values are for the comparison of the indicated condition with DMSO (FIG. 2B), scramble (FIG. 2D), or BRAF-WT groups (FIG. 2G). All the values represent the average standard deviation (SD) of triplicate samples from a typical experiment. All the experiments were performed three times with similar results.
FIG. 3A-3C. MYC regulated TERT expression in a TERT promoter mutation-independent manner. (FIG. 3A) The four indicated cancer cell lines harboring BRAF V600E mutation were treated with 0.5 uM PLX4032 and/or 10 nM MYC-specific siRNA (siMYC) for 24 hours, which were then subjected to Western blotting (upper panel) and qRT-PCR (lower panel). The relative TERT mRNA expression was normalized to the control group. (FIG. 3B, 3C) Parental and BRAF V600E knock-in SW48 cells were treated with control siRNA (siControl) or MYC-specific siRNA (siMYC, 10 nM) for 48 h, followed by Western blotting (FIG. 3B) and luciferase reporter assays (FIG. 3C). *P<0.05, **P<0.01, ***P<0.001, by 2-tailed Student's t test. n.s., not significant. All the values represent the average standard deviation (SD) of triplicate samples from a typical experiment. Similar results were obtained in two additional independent experiments.
FIG. 9A-9B. Summarized effects of PLX4032 (FIG. 9A) and AZD6244 (FIG. 9B) on TERT mRNA expression. Each bar represents the average+SD of the cells with the same genotypes as follows: BRAF-mut and TERT-mut cell lines: BCPAP, K1, OCUT1, A375, and M14; BRAF-mut and TERT-wt cell lines: SK-MEL-1, SK-MEL-3, and RKO; BRAF-wt and TERT-mut cell lines: TPC1, KAT18, C643, CHL-1, SK-MEL-2, and Mewo; BRAF-wt and TERT-wt cell lines: FB1, WRO, and HTORI3. Compared with the corresponding control of DMSO, **P<0.01, ***P<0.001, by independent t-test.
The BRAF V600E-specific inhibitor PLX4032 (#S1267) and the MEK1 inhibitor AZD6244 (#S1008) were purchased from Selleck Chemicals (Houston, TX), dissolved in DMSO with a stock concentration of 10 mM and stored at −20° C. PLX4032 and AZD6244 were used to treat cells for 24 hours at 0.5 μM and 0.2 μM, respectively, where indicated in the manuscript. DMSO was used as the vehicle control.
Total RNA was extracted from cultured cells using the TRIzol reagent (#15596-018; Ambion, Life Technologies, Carlsbad, CA) and reverse-transcribed to cDNA using the SuperScript III First-Strand Synthesis System (#18080-051; Invitrogen, Life Technologies, Carlsbad, CA). Gene expression was analyzed in triplicate using FastStart Universal SYBR Green Master with ROX (#04913850001; Roche Applied Science, Indianapolis, IN) on the Applied Biosystems 7900HT Fast Real-Time PCR System. […]

A further experiment has as its system ERK phosphorylation. Kind of experiment: Western blotting of phosphorylated ERK in inhibitor-treated cells. To be noted: cells harboring wild-type BRAF; 0.2 uM AZD6244, 24 hours. It counts as cell-based, human. Here is the method:
as §1, with “results. […]” for “results.”
Cells were lysed in the RIPA buffer (#sc-24948; Santa Cruz Biotechnology, Santa Cruz, CA) with protease inhibitor cocktail (#P8340; Sigma-Aldrich) and phosphatase inhibitor cocktail (#P0044; Sigma-Aldrich) and Western blotting analysis was performed as we previously described^54. […] Signals were detected by SuperSignal™ West Pico PLUS Chemiluminescent Substrate (#34579; Thermo Fisher Scientific). […]
In general terms: Immunoblotting shows a protein as a band on a membrane.

This note sets out measurements from patent US11911356B2, “Regulation of mutant TERT by BRAF V600E/map kinase pathway through FOS/GABP in human cancer” (THE JOHNS HOPKINS UNIVERSITY, priority 2017, dated 2024).

The structures appear in SMILES notation.

Turning to `Cn1cnc2c(F)c(Nc3ccc(Br)cc3Cl)c(C(=O)NOCCO)cc21` [AZD6244], the TERT expression entry in the experiment on TERT expression (cells harboring BRAF V600E mutation) is listed as “similarly inhibited TERT expression”; in the experiment with TERT expression (cells harboring wild-type BRAF, TERT promoter mutant versus wild-type) it was “inhibited TERT expression more in those harboring TERT promoter mutations”. Also, the ERK phosphorylation entry in the experiment on ERK phosphorylation is “modest inhibitory effect”.
